Biological target: T1, Human TRPC6 (Homo sapiens, UniProt Q9Y210)
T1 construct: expressed in transfected cells
T1 sequence (Q9Y210 1-931): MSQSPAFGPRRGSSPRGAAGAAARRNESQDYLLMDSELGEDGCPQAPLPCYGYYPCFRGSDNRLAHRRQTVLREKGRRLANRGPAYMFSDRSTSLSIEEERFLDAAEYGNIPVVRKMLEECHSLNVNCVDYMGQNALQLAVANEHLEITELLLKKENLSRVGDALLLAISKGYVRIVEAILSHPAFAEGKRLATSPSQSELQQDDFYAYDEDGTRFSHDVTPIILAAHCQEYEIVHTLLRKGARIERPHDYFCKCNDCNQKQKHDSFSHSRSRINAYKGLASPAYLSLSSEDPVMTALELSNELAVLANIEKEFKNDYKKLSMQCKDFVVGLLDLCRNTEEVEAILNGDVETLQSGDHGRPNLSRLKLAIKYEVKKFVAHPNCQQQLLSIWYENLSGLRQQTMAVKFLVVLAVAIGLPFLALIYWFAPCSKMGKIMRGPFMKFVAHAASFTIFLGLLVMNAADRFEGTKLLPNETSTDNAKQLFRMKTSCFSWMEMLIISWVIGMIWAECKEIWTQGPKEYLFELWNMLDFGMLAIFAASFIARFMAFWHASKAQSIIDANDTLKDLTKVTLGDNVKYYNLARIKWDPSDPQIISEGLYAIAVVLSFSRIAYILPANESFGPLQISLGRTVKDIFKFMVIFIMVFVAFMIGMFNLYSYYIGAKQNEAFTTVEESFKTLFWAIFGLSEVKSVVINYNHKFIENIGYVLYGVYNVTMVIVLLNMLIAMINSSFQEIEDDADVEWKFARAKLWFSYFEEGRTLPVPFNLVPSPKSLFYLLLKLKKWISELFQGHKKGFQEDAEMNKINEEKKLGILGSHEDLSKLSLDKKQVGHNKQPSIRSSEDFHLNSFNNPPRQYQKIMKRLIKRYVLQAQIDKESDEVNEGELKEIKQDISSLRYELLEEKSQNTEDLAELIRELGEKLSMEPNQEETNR
Assay: Evaluation of TRPC6 channel inhibitory activity (1), FLIPR Calcium 5 Assay Kit, OAG stimulation (Compound Nos. 1-1293)
Assay type: cell-based
Conditions: Human TRPC6 stably-expressing cells, OAG 30 μM, FLIPR Calcium 5 Assay Kit; read-out: Inhibitory activity (pIC50 class) (converted)
Outline: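 The FLIPR signal is maximum fluorescence after 30 μM OAG minus minimum before compound, measured in a human TRPC6 stable line loaded with Calcium 5 dye. Compounds were preincubated 20 min. pIC50 came from four-parameter logistic fitting of inhibition rates and is given as symbol ranges.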

Structure (SMILES)	IC50 [nM]
Cn1nc(C2CC2)cc1Oc1cc(C#N)ccc1-c1ccc(CC2(N)COC2)cn1 [compound 610, 4-[5-[(3-aminooxetan-3-yl)methyl]pyridin-2-yl]-3-(5-cyclopropyl-2-methylpyrazol-3-yl)oxybenzonitrile]	< 10
N#Cc1ccc(-c2ccc(CCN)cc2)c(Oc2cnnc(N3CCCC3)c2)c1 [Compound 65, 4-[4-(2-aminoethyl)phenyl]-3-(6-pyrrolidin-1-ylpyridazin-4-yl)oxybenzonitrile]	< 10
Cn1nc(-c2ccccc2)cc1Oc1cc(C#N)ccc1-c1cnc(C(O)CN)cn1 (centres unmarked) [compound 314, 4-[5-(2-amino-1-hydroxyethyl)pyrazin-2-yl]-3-(2-methyl-5-phenylpyrazol-3-yl)oxybenzonitrile]	< 10
Cc1nc(Oc2cc(C#N)ccc2-c2ccc(CCN)cc2)cc(-c2ccccc2C#N)n1 [Compound 21, 4-[4-(2-Aminoethyl)phenyl]-3-[6-(2-cyanophenyl)-2-methylpyrimidin-4-yl]oxybenzonitrile]	< 10
Cn1nc(-c2nccs2)cc1Oc1cc(C#N)ccc1-c1ncc(CCN)cn1 [compound 391, 4-[5-(2-aminoethyl)pyrimidin-2-yl]-3-[2-methyl-5-(1,3-thiazol-2-yl)pyrazol-3-yl]oxybenzonitrile]	< 10
Cc1nc(Oc2cc(C#N)ccc2-c2ccc(C(CN)c3ccc(F)cc3)cc2)cc(N2CCOCC2)n1 (centres unmarked) [Compound 60, 4-[4-[2-amino-1-(4-fluorophenyl)ethyl]phenyl]-3-(2-methyl-6-morpholin-4-ylpyrimidin-4-yl)oxybenzonitrile]	10 to 1000
Cn1nc(-c2ccccc2)cc1Oc1cc(C#N)ccc1-c1ccc2c(CN)noc2c1 [compound 457, 4-[3-(aminomethyl)-1,2-benzoxazol-6-yl]-3-(2-methyl-5-phenylpyrazol-3-yl)oxybenzonitrile]	> 1000
CC(C)(C)OCCOc1cc(Oc2cc(C#N)ccc2-c2ccc(CCN)cc2)cnn1 [Compound 127, 4-[4-(2-aminoethyl)phenyl]-3-[6-[2-[(2-methylpropan-2-yl)oxy]ethoxy]pyridazin-4-yl]oxybenzonitrile]	> 1000
Cc1nc(Oc2cc(C#N)ccc2-n2cc([C@@H](O)CN)cn2)cc(N2CCCC(F)(F)C2)n1 [Compound 257, 4-[4-[(1R)-2-amino-1-hydroxyethyl]pyrazol-1-yl]-3-[6-(3,3-difluoropiperidin-1-yl)-2-methylpyrimidin-4-yl]oxybenzonitrile]	10 to 1000
Cc1nc(Oc2cc(C#N)ccc2-c2ccc(CCNCCCO)cc2)cc(N2CCOCC2)n1 [Compound 58, 4-[4-[2-(3-Hydroxypropylamino)ethyl]phenyl]-3-(2-methyl-6-morpholin-4-ylpyrimidin-4-yl)oxybenzonitrile]	10 to 1000
Cc1cc(Oc2cc(C#N)ccc2-c2ccc(C[C@@H](N)C(=O)O)cn2)cc(N2CCOCC2)n1 [compound 614, (2R)-2-amino-3-[6-[4-cyano-2-(2-methyl-6-morpholin-4-ylpyridin-4-yl)oxyphenyl]pyridin-3-yl]propanoic acid]	> 1000
Cc1ccc(-c2cc(Oc3cc(C#N)ccc3-n3cc(C(O)CN)cn3)nc(C)n2)cc1 (centres unmarked) [Compound 142, 4-[4-(2-amino-1-hydroxyethyl)pyrazol-1-yl]-3-[2-methyl-6-(4-methylphenyl)pyrimidin-4-yl]oxybenzonitrile]	10 to 1000
N#Cc1ccc(-n2cc(C(O)CN)cn2)c(Oc2cnnc(-c3ccccc3)c2)c1 (centres unmarked) [Compound 154, 4-[4-(2-amino-1-hydroxyethyl)pyrazol-1-yl]-3-(6-phenylpyridazin-4-yl)oxybenzonitrile]	10 to 1000
CCCc1cc(Oc2cc(C#N)ccc2-c2ncc(CN)cn2)n(C)n1 [compound 363, 4-[5-(aminomethyl)pyrimidin-2-yl]-3-(2-methyl-5-propylpyrazol-3-yl)oxybenzonitrile]	< 10
Cc1nc(Oc2cc(C#N)ccc2-c2ncc(CN)cn2)cc(N2CC(F)(F)C2)n1 [compound 653, 4-[5-(aminomethyl)pyrimidin-2-yl]-3-[6-(3,3-difluoroazetidin-1-yl)-2-methylpyrimidin-4-yl]oxybenzonitrile]	10 to 1000
Cc1nc(Oc2cc(C#N)ccc2-c2ccc(CCN)cc2)cc(-c2ncco2)n1 [Compound 34, 4-[4-(2-aminoethyl)phenyl]-3-[2-methyl-6-(1,3-oxazol-2-yl)pyrimidin-4-yl]oxybenzonitrile]	10 to 1000
COCCOc1cc(Oc2cc(C#N)ccc2-c2ccc(CCN)cc2)nc(C)n1 [Compound 48, 4-[4-(2-aminoethyl)phenyl]-3-[6-(2-methoxyethoxy)-2-methylpyrimidin-4-yl]oxybenzonitrile]	10 to 1000
CC(=O)Nc1ccccc1-c1cc(Oc2cc(C#N)ccc2-c2ccc(CCN)cc2)cnn1 [Compound 119, N-[2-[5-[2-[4-(2-aminoethyl)phenyl]-5-cyanophenoxy]pyridazin-3-yl]phenyl]acetamide]	> 1000
Cc1cc(Oc2cc(C#N)ccc2-c2ccc(CN)n3ccnc23)cc(N2CCOCC2)n1 [compound 494, 4-[5-(aminomethyl)imidazo[1,2-a]pyridin-8-yl]-3-(2-methyl-6-morpholin-4-ylpyridin-4-yl)oxybenzonitrile]	10 to 1000

Further lines, results first:

IC50 [nM]	Structure (SMILES)
10 to 1000	Cn1nc(C2CCOCC2)cc1Oc1cc(F)ccc1-c1ccc(CN)cn1 [compound 1008, [6-[4-fluoro-2-[2-methyl-5-(oxan-4-yl)pyrazol-3-yl]oxyphenyl]pyridin-3-yl]methanamine]
< 10	Cn1nc(-c2cncs2)cc1Oc1cc(C#N)ccc1-c1ncc(CCN)cn1 [compound 951, 4-[5-(2-aminoethyl)pyrimidin-2-yl]-3-[2-methyl-5-(1,3-thiazol-5-yl)pyrazol-3-yl]oxybenzonitrile]
> 1000	N#Cc1ccc(-c2ccc(CN)cn2)c(C(=O)c2nnc(N3CCOCC3)s2)c1 [compound 1093, 4-[5-(aminomethyl)pyridin-2-yl]-3-(5-morpholin-4-yl-1,3,4-thiadiazole-2-carbonyl)benzonitrile]
< 10	Cn1nc(-c2ccccn2)cc1Oc1nc(C#N)ccc1-c1ccc(CCN)cn1 [compound 1280, 5-[5-(2-aminoethyl)pyridin-2-yl]-6-(2-methyl-5-pyridin-2-ylpyrazol-3-yl)oxypyridine-2-carbonitrile]
< 10	CC(C)c1cc(Oc2cc(F)ccc2-c2ccc(CCN)cn2)n(C)n1 [compound 1014, 2-[6-[4-fluoro-2-(2-methyl-5-propan-2-ylpyrazol-3-yl)oxyphenyl]pyridin-3-yl]ethanamine]
10 to 1000	NCCc1cnc(-c2ccc(F)cc2Oc2cnn(-c3ccccn3)c2)nc1 [compound 1004, 2-[2-[4-fluoro-2-(1-pyridin-2-ylpyrazol-4-yl)oxyphenyl]pyrimidin-5-yl]ethanamine]
< 10	Cc1nn(C(C)C)cc1Oc1cc(C#N)ccc1-c1ncc(CCN)cn1 [compound 803, 4-[5-(2-aminoethyl)pyrimidin-2-yl]-3-(3-methyl-1-propan-2-ylpyrazol-4-yl)oxybenzonitrile]
< 10	Cc1nc(Oc2cc(C#N)ccc2-c2ncc(CCN)cn2)cc(N2CCC(F)CC2)n1 [compound 668, 4-[5-(2-aminoethyl)pyrimidin-2-yl]-3-[6-(4-fluoropiperidin-1-yl)-2-methylpyrimidin-4-yl]oxybenzonitrile]
< 10	CCN(CC)c1cc(Cc2cc(C#N)ccc2-c2ccc(CCN)cn2)n(C)n1 [compound 1208, 4-[5-(2-aminoethyl)pyridin-2-yl]-3-[[5-(diethylamino)-2-methylpyrazol-3-yl]methyl]benzonitrile]
< 10	CC(C)Cn1cc(C(=O)c2cc(C#N)ccc2-c2ncc(CCN)cn2)cn1 [compound 1060, 4-[5-(2-aminoethyl)pyrimidin-2-yl]-3-[1-(2-methylpropyl)pyrazole-4-carbonyl]benzonitrile]
< 10	CC(C)CN(C)c1cc(Oc2cc(C#N)ccc2-c2ncc(CCN)cn2)n(C)n1 [compound 758, 4-[5-(2-aminoethyl)pyrimidin-2-yl]-3-[2-methyl-5-[methyl(2-methylpropyl)amino]pyrazol-3-yl]oxybenzonitrile]
< 10	CCN(CC)c1cc(Oc2cc(C#N)ccc2-c2ncc(CN)cn2)n(C)n1 [compound 655, 4-[5-(aminomethyl)pyrimidin-2-yl]-3-[5-(diethylamino)-2-methylpyrazol-3-yl]oxybenzonitrile]
10 to 1000	Cn1nc(N2CCOCC2)cc1C(=O)c1cc(F)ccc1-c1ncc(CN)cn1 [compound 1105, [2-[5-(aminomethyl)pyrimidin-2-yl]-5-fluorophenyl]-(2-methyl-5-morpholin-4-ylpyrazol-3-yl)methanone]
